Where two headings read alike, the source gives them in different places.
What was measured:
[1] = molecular target: huAR (Homo sapiens, UniProt P10275); experiment: Competition binding assay on cells, human AR
Description: The KD for subfamily 3 group C nuclear hormone receptors was determined on cells by displacing ^3H-steroidal agonists for the respective receptor. […].
The cold ligands and ^3H-steroids were co-incubated on cells in PBS at room temperature for one hour. Following incubation, the cells were washed twice with ice cold PBS and the unbound activity was retained for analysis. The cells were lysed with 1 mL of 1 M NaOH and collected. Bound and unbound fractions were counted in a liquid scintillation counter and expressed as a percentage of the total activity added per equal relative number of cells. […]. The specific binding component was plotted against the log of the competing ligand and curve fit using a non-linear regression algorithm with PRISM software.

[2] = molecular target: T1, human GR (Homo sapiens, UniProt P04150); experiment: Competition binding assay on cells, human GR
T1 construct: PC3 and DU145, two human prostate cancer models with endogenous GR expression; endogenous in cells; host or cells: DU145
T1 sequence (P04150 1-777): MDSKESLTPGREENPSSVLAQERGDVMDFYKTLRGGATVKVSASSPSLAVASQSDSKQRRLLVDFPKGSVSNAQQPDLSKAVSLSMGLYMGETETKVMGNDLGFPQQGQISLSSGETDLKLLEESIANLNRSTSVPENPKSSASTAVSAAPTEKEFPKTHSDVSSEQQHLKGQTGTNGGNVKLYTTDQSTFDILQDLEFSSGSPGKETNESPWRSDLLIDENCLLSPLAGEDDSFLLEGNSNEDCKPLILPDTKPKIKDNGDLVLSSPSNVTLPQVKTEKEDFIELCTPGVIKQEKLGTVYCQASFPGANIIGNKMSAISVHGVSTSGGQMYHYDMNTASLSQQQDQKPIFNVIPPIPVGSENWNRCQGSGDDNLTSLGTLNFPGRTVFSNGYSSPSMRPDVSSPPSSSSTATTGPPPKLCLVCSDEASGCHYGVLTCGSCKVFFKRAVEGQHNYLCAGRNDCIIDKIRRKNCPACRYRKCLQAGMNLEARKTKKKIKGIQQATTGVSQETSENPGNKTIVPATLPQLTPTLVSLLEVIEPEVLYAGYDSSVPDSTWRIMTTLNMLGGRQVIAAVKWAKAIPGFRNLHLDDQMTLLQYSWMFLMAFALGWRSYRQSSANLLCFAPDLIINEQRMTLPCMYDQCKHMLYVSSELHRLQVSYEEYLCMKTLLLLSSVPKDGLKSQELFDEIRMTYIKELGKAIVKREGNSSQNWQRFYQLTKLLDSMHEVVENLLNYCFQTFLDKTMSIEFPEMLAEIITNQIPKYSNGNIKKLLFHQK
Description: (§1) The KD for subfamily 3 group C nuclear hormone receptors was determined on cells by displacing ^3H-steroidal agonists for the respective receptor.
(§2) The cold ligands and ^3H-steroids were co-incubated on cells in PBS at room temperature for one hour. Following incubation, the cells were washed twice with ice cold PBS and the unbound activity was retained for analysis. The cells were lysed with 1 mL of 1 M NaOH and collected. Bound and unbound fractions were counted in a liquid scintillation counter and expressed as a percentage of the total activity added per equal relative number of cells. […] The specific binding component was plotted against the log of the competing ligand and curve fit using a non-linear regression algorithm with PRISM software.

[3] = molecular target: T2, huER (Homo sapiens, UniProt P03372); experiment: Competition binding assay on cells, human ER; settings: MCF7 cells, displacing 3H-estradiol
T2 construct: DU145 (GR), LNCaP-AR (AR), MCF7 (PR, ER), GL261 (mouse GR), and 9L (rat GR); endogenous in cells; host or cells: MCF7
T2 sequence (P03372 1-595): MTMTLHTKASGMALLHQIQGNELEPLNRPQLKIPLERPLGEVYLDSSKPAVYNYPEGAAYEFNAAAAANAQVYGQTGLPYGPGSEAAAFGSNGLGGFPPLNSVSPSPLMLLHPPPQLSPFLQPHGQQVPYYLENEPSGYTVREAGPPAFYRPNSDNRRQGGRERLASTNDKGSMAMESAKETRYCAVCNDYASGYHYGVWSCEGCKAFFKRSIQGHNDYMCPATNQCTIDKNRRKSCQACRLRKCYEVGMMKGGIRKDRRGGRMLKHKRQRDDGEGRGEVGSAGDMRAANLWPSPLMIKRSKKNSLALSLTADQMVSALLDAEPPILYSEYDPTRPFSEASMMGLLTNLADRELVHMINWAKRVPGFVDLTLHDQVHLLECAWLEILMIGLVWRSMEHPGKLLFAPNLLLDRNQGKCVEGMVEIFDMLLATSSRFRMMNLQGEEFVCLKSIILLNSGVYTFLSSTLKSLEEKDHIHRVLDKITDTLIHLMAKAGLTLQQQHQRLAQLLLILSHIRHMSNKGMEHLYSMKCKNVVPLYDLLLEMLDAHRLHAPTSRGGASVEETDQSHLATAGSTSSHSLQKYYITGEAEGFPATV

[4] = molecular target: T3, huPR (Homo sapiens, UniProt P06401); experiment: Competition binding assay on cells, human PR; settings: MCF7 cells, displacing 3H-progesterone
T3 construct: DU145 (GR), LNCaP-AR (AR), MCF7 (PR, ER), GL261 (mouse GR), and 9L (rat GR); endogenous in cells; host or cells: MCF7
T3 sequence (P06401 1-933): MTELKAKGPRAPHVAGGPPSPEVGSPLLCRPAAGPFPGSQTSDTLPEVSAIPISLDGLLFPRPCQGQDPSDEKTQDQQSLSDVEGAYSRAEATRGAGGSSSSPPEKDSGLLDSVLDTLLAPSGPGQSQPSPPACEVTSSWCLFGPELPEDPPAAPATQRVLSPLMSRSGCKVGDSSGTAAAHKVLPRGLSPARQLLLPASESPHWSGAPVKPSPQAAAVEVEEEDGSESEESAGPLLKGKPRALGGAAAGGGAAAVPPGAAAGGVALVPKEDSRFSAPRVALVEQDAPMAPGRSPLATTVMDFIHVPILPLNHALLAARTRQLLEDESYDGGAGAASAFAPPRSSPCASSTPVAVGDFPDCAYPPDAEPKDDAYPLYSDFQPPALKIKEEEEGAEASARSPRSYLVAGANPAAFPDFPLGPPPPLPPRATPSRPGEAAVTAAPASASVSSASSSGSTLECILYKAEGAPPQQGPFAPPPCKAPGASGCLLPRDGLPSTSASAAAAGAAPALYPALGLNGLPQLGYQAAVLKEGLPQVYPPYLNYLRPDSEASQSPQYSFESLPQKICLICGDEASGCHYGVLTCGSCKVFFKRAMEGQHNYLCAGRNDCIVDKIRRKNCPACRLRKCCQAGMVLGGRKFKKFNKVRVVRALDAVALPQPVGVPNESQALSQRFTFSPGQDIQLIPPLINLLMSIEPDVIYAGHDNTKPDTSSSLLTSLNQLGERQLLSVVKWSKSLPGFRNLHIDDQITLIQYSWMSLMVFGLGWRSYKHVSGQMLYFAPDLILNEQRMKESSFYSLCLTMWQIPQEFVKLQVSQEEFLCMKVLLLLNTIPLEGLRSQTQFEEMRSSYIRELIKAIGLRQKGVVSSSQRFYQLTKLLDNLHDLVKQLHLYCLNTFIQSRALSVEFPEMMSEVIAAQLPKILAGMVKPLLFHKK
Description: as §1, §2

[5] = DU145 cells, displacing 3H-dexamethasone, read-out: KD huGR

huAR, sequence (P10275 whole entry): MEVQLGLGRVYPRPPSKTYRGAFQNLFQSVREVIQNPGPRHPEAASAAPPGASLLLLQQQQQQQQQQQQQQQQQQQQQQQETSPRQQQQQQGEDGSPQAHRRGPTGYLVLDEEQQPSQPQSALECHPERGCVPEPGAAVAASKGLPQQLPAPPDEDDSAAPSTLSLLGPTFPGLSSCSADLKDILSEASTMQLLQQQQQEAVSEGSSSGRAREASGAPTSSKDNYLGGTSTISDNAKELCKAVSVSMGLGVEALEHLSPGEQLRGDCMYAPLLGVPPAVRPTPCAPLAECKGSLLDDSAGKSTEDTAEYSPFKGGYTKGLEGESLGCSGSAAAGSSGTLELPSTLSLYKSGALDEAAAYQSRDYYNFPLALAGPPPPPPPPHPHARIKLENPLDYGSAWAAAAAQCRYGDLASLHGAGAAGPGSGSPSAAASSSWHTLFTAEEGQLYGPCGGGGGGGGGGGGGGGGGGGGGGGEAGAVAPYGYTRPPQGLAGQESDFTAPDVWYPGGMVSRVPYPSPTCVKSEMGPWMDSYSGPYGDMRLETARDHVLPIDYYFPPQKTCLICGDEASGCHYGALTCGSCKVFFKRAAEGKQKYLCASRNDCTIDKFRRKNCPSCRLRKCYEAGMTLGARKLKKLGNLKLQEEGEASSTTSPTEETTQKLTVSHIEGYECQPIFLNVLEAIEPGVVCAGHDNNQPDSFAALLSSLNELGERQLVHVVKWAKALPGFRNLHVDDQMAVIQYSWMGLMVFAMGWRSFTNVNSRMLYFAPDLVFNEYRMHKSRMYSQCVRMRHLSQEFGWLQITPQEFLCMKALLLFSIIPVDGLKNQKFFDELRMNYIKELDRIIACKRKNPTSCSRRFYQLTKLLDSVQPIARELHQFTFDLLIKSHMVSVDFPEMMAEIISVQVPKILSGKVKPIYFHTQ

Compound | Kd [1] | Kd [2, 5] | Kd ([2]; Supplementary Table 1, read-out: KD for human GR) | Kd [3] | Kd [4]
C[C@]12C=CC(=O)C=C1CCC1C2[C@@H](O)C[C@@]2(C)C1CC[C@]2(O)C(=O)COCCCF (stereo partly drawn) [GR01] | 1460 nM | 3.86 nM | 3.8 nM | 978 nM | 1060 nM
C[C@]12C=CC(=O)C=C1CCC1C2[C@@H](O)C[C@@]2(C)C1CC[C@]2(O)C(=O)CNC(=O)c1ccc(F)cc1 (stereo partly drawn) [GR02] | 1260 nM | 15.9 nM | – | 20700 nM | 242 nM

Source: PMC5945515, “Measuring glucocorticoid receptor expression in vivo with PET” (Oncotarget, 2018)
